# Source: EP1541694A1, “Methods of identifying, selecting and/or characterizing compounds which modulate the activity of a Src family kinase” (Sirenade Pharmaceuticals AG, priority 2003, dated 2005)
# What was measured:
# Assay in all cases: Suppression of tet-induced phenotype changes, evaluated by eye/microscope, normal cell culture plates
# Assay type in all cases: cell-based, human
# [1] = system: Src-TQ/YF expressing ZM170 cell lines; details: adherent, PP1-Chr. and PP2 shown as combination 10µM + 5µM
# Method: (§1) Phenotype changes -tet → +tet were evaluated in 24-well plates (Nunc; cat.no. 143982) under the following several different growth conditions to identify the strongest possible response (Δpt(-tet→+tet)max) 1. full (10% serum containing) growth medium a) without any growth factor supplement (-), b) with epidermal growth factor (EGF; 100ng/ml) (cat.no. 115, Research Diagnostics Inc. (RDI), Flanders, NJ, USA) or c) platelet derived growth factor type BB (PDGF-BB; 30ng/ml) (cat.no. 114b, RDI) or d) hepatocyte growth factor (HGF; 20ng/ml) (RDI, cat.no.300-010), or 2. serum-free medium a) - or b) +EGF or c) +PDGF or d) +HGF. In all cases, cells were first seeded into standard 24-well or 96-well plates (Nunc) in full growth medium. The cell number seeded per well was also varied to identify the most suitable cell densities producing Δpt(-tet→+tet)max. […]
# (§2) To that end, the test compounds PP1-Chr., PP2 (cat.no. 529573, Calbiochem) and SU6656 (cat.no. 572635, Calbiochem) (see Fig.9p for chemical structures) were individually added to the cells together with tet, and the development of the phenotype changes in the presence of these compounds was monitored subsequently in direct comparison with cells that received no compound or only vehicle (0.2% DMSO) together with tet induction. […]
# [2] = system: Src-KA expressing ZM76 cell lines; details: adherent, serum-containing medium + EGF, PP1-Chr. and PP2 shown as combination
# Method: as §1, §2
# [3] = system: Src-TQ expressing ZM78 cell lines; details: adherent
# Method: as §1, §2
compound,measurement,setting,value
CC(C)(C)n1nc(-c2ccc(Cl)cc2)c2c(N)ncnc21 [PP2],suppression of tet-induced phenotype changes,[1],ineffective
same,suppression of tet-induced phenotype changes,[2],not able to suppress
same,suppression of tet-induced phenotype changes,[3],ineffective
